# Values joined by “and” are separate entries in the source; they are usually repeats but may differ in a detail not shown here. Equal values may be shown once.
# Legend:
# [1] = tested on: BALB/c responder splenocytes with CBA/J stimulator cells; experiment: Mixed lymphocyte response (MLR); format: cell-based, mouse (BALB/c; conditions: Mus musculus, Splenocyte, 120 h, MLR, 5 days, read-out: % Control
# Procedure: This study examined the potential immunomodulatory activities of PIP[4,4,4] on mouse spleen cells using in vitro techniques. The effect of the compound on the ability of murine splenocytes to respond to the […] mitogen concanavalin A (Con A) and the B cell mitogen lipopolysaccharide (LPS) was studied. […] In addition, the compound was tested for its effect on the mixed lymphocyte response (MLR). The MLR is an in vitro manifestation of cell-mediated immunity in which T cells respond to differences in major histocompatibility complex (MHC) class II molecules (Ia antigens) expressed on foreign or allogeneic leukocytes (primarily B cells and […]/monocytes).
# a. Preparation of cells--Under sterile conditions, spleens were removed from BALB/c (H-2^d) and CBA/J (H-2^k) mice. BALB/c splenocytes were used as responder cells in the mitogen assays and the MLR assays, whereas CBA/J cells were used as stimulator cells in the MLR assays. […] Cells were exposed to various concentrations of the test compounds for the entire culture period. The initial dilutions in medium were filter sterilized to maintain aseptic conditions.
# c. […] Thus, a BALB/c (2×10^5 cells/well) anti-CBA/J (8×10^5 cells/well) MLR combination was used in these studies. CBA/J spleen cells were irradiated with 2,000 R to prevent them from responding to BALB/c MHC antigens. Triplicate wells were set up in 96-well flat-bottom microtiter plates for all treated cultures and positive controls (100% of control) were performed in replicates of nine wells. Plates were incubated at 37° C. in a humidified CO2 incubator for 5 days, pulsed with 1 μCI […]/well for 6-16 hours, harvested and counted in a liquid scintillation counter. All data were processed using Lotus 1-2-3 and SigmaPlot software.
# [2] = tested on: phenylquinone (P.Q.) writhing; experiment: Analgesic activity, phenylquinone writhing; format: in vivo, mouse (ICR)
# Procedure: The method of Siegmund et al [Proc. Soc. Exp. Biol. Med., Vol. 95, pages 729-731 (1957)] was used to measure the analgesic activity of PIP[4,4,4]. Groups of 10 male ICR mice weighing 22±2 g were employed. Various doses of test compound, dissolved in a vehicle of distilled water, were administered intraperitoneally. The control group received vehicle alone. […] The mean±SEM number of writhes in each treatment group was calculated and unpaired Student's t test was applied for comparison between vehicle and treated groups. Differences were considered significant when P<0.05.
# [3] = Solubility in the vehicle; format: physicochemical; conditions: distilled water
# Procedure: PIP[4,4,4] was obtained as described above. Distilled water was used as the vehicle for in vivo testing. […] Commercially obtained chemicals used were indomethacin and hydrocortisone (Sigma, St. Louis, Mo., U.S.A.), aspirin (Miles Labs., Elkart, IN, U.S.A.), carrageenan (Tokyo Kasei Industry Co., Ltd.), Mycobacterium tuberculosis (Difco Labs., Detroit, Mich., U.S.A.) and carboxymethyl-cellulose (Wako Pure Chemical Industries, Osaka, Japan). Doses of all compounds used were calculated on the basis of the weight of the salt.
# [4] = tested on: adjuvant-induced arthritis
# [5] = tested on: carrageenan-induced edema in rat paw; experiment: Inhibition of carrageenan-induced paw edema in rats
# [6] = tested on: adjuvant-induced arthritis; experiment: Adjuvant-induced arthritis model in Lewis rats (Table 7); conditions: p.o. 5 days, DiPIPs 100 mg/kg, Voltaren and indomethacin 6 mg/kg
# Procedure: Four groups consisting of 6 male Lewis rats weighing 150-200 g were injected subcutaneously at the base of the tail with 0.1 ml of CFA. Drugs to be assayed were administered 5 days beginning on the day of the adjuvant injection. The paw volume of the right and left rear paw of each rat were measured on the day of adjuvant injection and at regular intervals for 30 days thereafter.
# The emulsion was injected subcutaneously at the base of the tail and induced the arthritic state. Measurements of paw volume were made for 30 days to monitor paw swelling. Drug treatment began on Day 0.
# Four groups consisting of 10 male Lewis rats weighing 150-200 g were injected subcutaneously at the base of the tail with 0.1 ml of CFA. Drugs to be assayed were administered for 5 days beginning on the day of the adjuvant injection.
# [7] = 100 mg/kg p.o. daily for 5 consecutive days
# [8] = Day 19, individual rat, p.o. × 5: PIP[4,4,4] 100, hydrocortisone 30, indomethacin 5 mg/kg
smiles,measurement,setting,value
"C(CCNCC1CCNCC1)CNCC1CCNCC1 [PIP[4,4,4], N,N'-Bis(4-piperidinylmethyl)-1,4-butanediamine]",activity at 100 µM,[1]; drug 100.000 μm,71%
same,activity at 1000 µM,[1]; drug 1000.000 μm,54%
same,% Inhibition (writhing),[2]; 100 mg/kg i.p.,79%
same,# Writhes (X ± SEM),"[2]; 100 mg/kg i.p., P.Q. 2 mg/kg i.p. 30 min post dosing, **P < 0.01",3 ± 1 # WRITHES
same,Analgesic activity (in words),"[2]; i.p., compared with vehicle control",exhibited analgesic activity
same,Solubility in the vehicle,[3],completely soluble
same,Acute and late phase swelling (in words),[4]; [7],reduced both part of the acute phase and inhibited the development of the late phase swelling in the contralateral paw
same,Signs of polyarthritis in the paws (in words),[4]; [7],did not prevent the appearance of signs of polyarthritis in the paws
same,Inhibition % B (5-0),"[4]; 5th day after 5 doses, p.o.: PIP[4,4,4] 100, hydrocortisone 30, indomethacin 5 mg/kg, >30% significant",26%
same,"Net swelling of paw volume A (1-0), average","[4]; Day 1 - Day 0, average, p.o. × 5: PIP[4,4,4] 100, hydrocortisone 30, indomethacin 5 mg/kg",0.74 mL
same,"Net swelling of paw volume B (5-0), average","[4]; Day 5 - Day 0, average, p.o. × 5: PIP[4,4,4] 100, hydrocortisone 30, indomethacin 5 mg/kg",1.22 mL
same,Net swelling of paw volume B (5-0),"[4]; Day 5 - Day 0, individual rat, p.o. × 5: PIP[4,4,4] 100, hydrocortisone 30, indomethacin 5 mg/kg",1.17 mL and 1.49 mL and 1.04 mL and 1.37 mL and 1.03 mL
same,"Net swelling of paw volume C (5-1), average","[4]; Day 5 - Day 1, average, p.o. × 5: PIP[4,4,4] 100, hydrocortisone 30, indomethacin 5 mg/kg",0.48 mL
same,Net swelling of paw volume C (5-1),"[4]; Day 5 - Day 1, individual rat, p.o. × 5: PIP[4,4,4] 100, hydrocortisone 30, indomethacin 5 mg/kg",0.34 mL and 0.70 mL and 0.50 mL and 0.52 mL
same,Polyarthritis E (ears),[4]; [8],-
same,Polyarthritis N (noses),[4]; [8],-
same,Polyarthritis P (paws),[4]; [8],+
same,Polyarthritis T (tails),[4]; [8],-
same,"B.W. Gain (18-0), average","[4]; average, p.o. × 5: PIP[4,4,4] 100, hydrocortisone 30, indomethacin 5 mg/kg",25 g
same,Inhibition % A (1-0),"[4]; first day, after one dose, p.o.: PIP[4,4,4] 100, hydrocortisone 30, indomethacin 5 mg/kg, >30% significant",11%
same,B.W. Gain (18-0),"[4]; individual rat, p.o. × 5: PIP[4,4,4] 100, hydrocortisone 30, indomethacin 5 mg/kg",20 g and 35 g and 5 g and 30 g
same,Inhibition % C (5-1),"[4]; paw volume change Day 1 to Day 5, p.o. × 5: PIP[4,4,4] 100, hydrocortisone 30, indomethacin 5 mg/kg, >30% significant",41%
same,"Net swelling of paw volume D (14-0), average","[4]; untreated paw, Day 14 - Day 0, average, p.o. × 5: PIP[4,4,4] 100, hydrocortisone 30, indomethacin 5 mg/kg",0.29 mL
same,Net swelling of paw volume D (14-0),"[4]; untreated paw, Day 14 - Day 0, individual rat, p.o. × 5: PIP[4,4,4] 100, hydrocortisone 30, indomethacin 5 mg/kg",0.25 mL and 0.43 mL and 0.23 mL and 0.34 mL and 0.20 mL
same,Inhibition % D (14-0),"[4]; untreated paw, Day 14 relative to Day 0, p.o. × 5: PIP[4,4,4] 100, hydrocortisone 30, indomethacin 5 mg/kg, >30% significant",36%
same,Inhibition % F (18-14),"[4]; untreated paw, Day 14 to Day 18, p.o. × 5: PIP[4,4,4] 100, hydrocortisone 30, indomethacin 5 mg/kg, >30% significant",47%
same,"Net swelling of paw volume E (18-0), average","[4]; untreated paw, Day 18 - Day 0, average, p.o. × 5: PIP[4,4,4] 100, hydrocortisone 30, indomethacin 5 mg/kg",0.45 mL
same,Net swelling of paw volume E (18-0),"[4]; untreated paw, Day 18 - Day 0, individual rat, p.o. × 5: PIP[4,4,4] 100, hydrocortisone 30, indomethacin 5 mg/kg",0.35 mL and 0.55 mL and 0.37 mL and 0.45 mL and 0.53 mL
same,"Net swelling of paw volume F (18-14), average","[4]; untreated paw, Day 18 - Day 14, average, p.o. × 5: PIP[4,4,4] 100, hydrocortisone 30, indomethacin 5 mg/kg",0.16 mL
same,Net swelling of paw volume F (18-14),"[4]; untreated paw, Day 18 - Day 14, individual rat, p.o. × 5: PIP[4,4,4] 100, hydrocortisone 30, indomethacin 5 mg/kg",0.10 mL and 0.12 mL and 0.14 mL and 0.11 mL and 0.33 mL
same,Inhibition % E (18-0),"[4]; untreated paw, Day 18 relative to Day 0, p.o. × 5: PIP[4,4,4] 100, hydrocortisone 30, indomethacin 5 mg/kg, >30% significant",40%
same,Weight gain reductions (in words),"[4]; vs vehicle-treated animals, 18 day study",did not affect weight gain reductions
same,Acute anti-inflammatory activity (in words),[5]; 30 mg/kg intraperitoneally,significantly reducing the extent of carrageenan-induced paw edema
same,% Edema inhibition,"[5]; vs vehicle control, aspirin 150 mg/kg p.o., hydrocortisone 25 mg/kg p.o., PIP[4,4,4] 30 mg/kg i.p., >30% significant",58%
same,% FINAL INHIBITION,[6]; Day 28-0,58%
same,FINAL DAY 28-0 (paw volume),[6],.801
same,INITIAL DAY 14-0 (paw volume),[6],.496
